Measured values published in ChEMBL document CHEMBL4219189, “Designing novel inhibitors against falcipain-2 of Plasmodium falciparum” (Bioorg Med Chem Lett, 2018).
Active and inactive are the calls of the source. No cut-off for these calls is given here.

How the values were obtained:
Plasmodium falciparum [1] = experiment: Inhibition of chloroquine resistant Plasmodium falciparum RKL9 schizont stage infected in human erythrocytes assessed as reduction in […] growth after 24 hrs by Giemsa staining based assay; assay type: cell-based; settings: RKL9, 24 h
Plasmodium falciparum [2] = experiment: Inhibition of chloroquine sensitive Plasmodium falciparum MRC-02 schizont stage infected in human erythrocytes assessed as reduction in […] growth after 24 hrs by Giemsa staining based assay; assay type: cell-based; settings: MRC-02, 24 h
Plasmodium berghei [3] = experiment: Antimalarial activity against Plasmodium berghei infected in Swiss albino mouse assessed as suppression of parasitaemia at 25 mg/kg/day, po for 4 consecutive days starting from 4 hrs post infection measured on day 4 post last dose by Giemsa staining based microscopic method relative to control; assay type: functional
Plasmodium falciparum [4] = experiment: Resistance index, ratio of IC50 for chloroquine sensitive Plasmodium falciparum MRC-02 schizont stage infected in human erythrocytes to IC50 for chloroquine resistant Plasmodium falciparum RKL9 schizont stage infected in human erythrocytes
Plasmodium berghei [5] = experiment: Antimalarial activity against Plasmodium berghei infected in Swiss albino mouse assessed as increase in mouse survival at 25 mg/kg/day, po for 4 consecutive days starting from 4 hrs post infection measured on day 28 by Giemsa staining based microscopic method; assay type: functional, organism-based
Plasmodium berghei [6] = experiment: Antimalarial activity against Plasmodium berghei infected in Swiss albino mouse assessed as increase in mouse survival at 20 mg/kg/day, po for 4 consecutive days starting from 4 hrs post infection measured on day 28 by Giemsa staining based microscopic method; assay type: functional, organism-based
Plasmodium berghei [7] = experiment: Antimalarial activity against Plasmodium berghei infected in Swiss albino mouse assessed as suppression of parasitaemia at 20 mg/kg/day, po for 4 consecutive days starting from 4 hrs post infection measured on day 4 post last dose by Giemsa staining based microscopic method relative to control; assay type: functional

| SMILES | IC50 (Plasmodium falciparum [1]) | IC50 (Plasmodium falciparum [2]) | Activity (Plasmodium berghei [3]) | Ratio IC50 (Plasmodium falciparum [4]) | Activity (Plasmodium berghei [5]) | Activity (Plasmodium berghei [6]) | Activity (Plasmodium berghei [7]) |
| --- | --- | --- | --- | --- | --- | --- | --- |
| CCN(CC)c1ccc2cc(C3=NN(c4ccccc4)C(c4ccccc4)C3)c(=O)oc2c1 (centres undefined) | > 100 µM | > 100 µM | – | – | – | – | – |
| CCN(CC)c1ccc2cc(C3=NN(C(=O)c4ccccc4)C(c4ccccc4)C3)c(=O)oc2c1 (centres undefined) | > 100 µM | > 100 µM | – | – | – | – | – |
| CCN(CC)c1ccc2cc(C3=NN(c4ccccc4)C(c4ccc(Cl)cc4)C3)c(=O)oc2c1 (centres undefined) | 9.1 µM | 10.4 µM | 34% | 1.1 | inactive | – | – |
| CCN(CC)c1ccc2cc(C3=NNC(c4ccccc4)C3)c(=O)oc2c1 (centres undefined) | > 100 µM | > 100 µM | – | – | – | – | – |
| CCN(CC)c1ccc2cc(C3=NNC(c4ccc(O)cc4)C3)c(=O)oc2c1 (centres undefined) | 29.9 µM | 26.7 µM | – | 0.89 | – | – | – |
| CCN(CC)c1ccc2cc(C3=NN(c4ccccc4)C(c4ccc(O)cc4)C3)c(=O)oc2c1 (centres undefined) | 25.3 µM | 17.5 µM | – | 0.69 | – | – | – |
| CCN(CC)CCCC(C)Nc1ccnc2cc(Cl)ccc12 (centres undefined) [CHLOROQUINE] | – | – | – | – | – | Active | 100% |
| CCN(CC)c1ccc2cc(C3=NNC(c4ccc(Cl)cc4)C3)c(=O)oc2c1 (centres undefined) | 27.1 µM | 18.6 µM | – | 0.68 | – | – | – |
| CCN(CC)c1ccc2cc(C3=NN(C(=O)c4ccccc4)C(c4ccc(O)cc4)C3)c(=O)oc2c1 (centres undefined) | 26.7 µM | 14.3 µM | – | 0.53 | – | – | – |
| CCN(CC)c1ccc2cc(C3=NN(C(=O)c4ccccc4)C(c4ccc(F)cc4)C3)c(=O)oc2c1 (centres undefined) | 1.9 µM | 4.2 µM | 100% | 2.2 | Active | – | – |
| CCN(CC)c1ccc2cc(C3=NN(C(=O)c4ccccc4)C(c4ccc([N+](=O)[O-])cc4)C3)c(=O)oc2c1 (centres undefined) | 2.1 µM | 3.3 µM | 62% | 1.6 | inactive | – | – |
| CCN(CC)c1ccc2cc(C3=NN(c4ccccc4)C(c4ccc(F)cc4)C3)c(=O)oc2c1 (centres undefined) | 33.8 µM | 26.9 µM | – | 0.79 | – | – | – |
| CCN(CC)c1ccc2cc(C3=NN(c4ccccc4)C(c4ccc([N+](=O)[O-])cc4)C3)c(=O)oc2c1 (centres undefined) | 41.6 µM | 20.9 µM | – | 0.5 | – | – | – |
| CCN(CC)c1ccc2cc(C3=NNC(c4ccc([N+](=O)[O-])cc4)C3)c(=O)oc2c1 (centres undefined) | 30.4 µM | 19.7 µM | – | 0.64 | – | – | – |
| CCN(CC)c1ccc2cc(C3=NNC(c4ccc(F)cc4)C3)c(=O)oc2c1 (centres undefined) | 44.5 µM | 34.2 µM | – | 0.76 | – | – | – |
| CCN(CC)c1ccc2cc(C3=NN(C(=O)c4ccccc4)C(c4ccc(Cl)cc4)C3)c(=O)oc2c1 (centres undefined) | > 100 µM | > 100 µM | – | – | – | – | – |
